From publication PMC10733349, “Synthesis and in-vitro anti-proliferative with antimicrobial activity of new coumarin containing heterocycles hybrids” (Scientific Reports, 2023)
Values after ≈ are worked out from the molar mass of the structure shown. Values joined by “and” are separate entries in the source; they are usually repeats but may differ in a detail not shown here. Equal entries are not always repeated.

Experiments:
[1] = system: A549 cell line; assay: MTT anti-proliferative assay, A549; assay type: cell-based, Human; details: for IC50: Homo sapiens, A549, 48 h, A549, MTT, 2 days; for Selective index: SI = IC50 normal cells (WISH)/IC50 A549
From the text: (§1) Cell lines; WISH cell line (Human amnion-derived normal epithelial cells, CCL-25), MDA-MB-231 cell line (Human, mammary gland/breast adenocarcinoma, HTB-26), CaCo-2 cell line (Human Colorectal adenocarcinoma, epithelial cells, HTB-37), A549 cell line (Human Lung adenocarcinoma, epithelial cells, CCL-185) cell lines and HepG-2 (liver hepatocellular carcinoma, HEPG2, HB-8065) were obtained from ATCC, originally with license and serial numbers as mentioned.
(§2) The safety assays of coumarin hybrids on noncancerous cell lines and their anticancer effects on cancerous cells were gauged utilizing MTT-assay (Promega) in accordance with the instruction protocol. Starting from 60 to 200 µM, serial dilutions of coumarin hybrids were prepared in sterile DMSO to be treated cell lines at final concentrations 30 to 100 µM. The treated cells were incubated for 2 days, and the cellular cytotoxicity was detected by quantifying the solubilized formazan in DMSO at 570 nm. The inhibition concentration of 50 (IC50) was calculated from the cytotoxicity% curve using GraphPad prism 9.
(§3) Cancer cell selectivity index of Coumarin hybrids samples were measured as explained by, with a minor modification; (SI = IC50nc/IC50cc), where IC50nc refers to the value of IC50 of the coumarin hybrids compounds on normal cells, while IC50cc refers to the IC50 of the coumarin hybrids compounds on cancer cell line.

[2] = system: MDA-MB-231 cell line; assay: MTT anti-proliferative assay, MDA-MB-231; assay type: cell-based, Human; details: for IC50: MDA-MB-231, MTT, 2 days; for Selective index: SI = IC50 normal cells (WISH)/IC50 MDA-MB-231
From the text: as §1, §2, §3

[3] = system: Streptococcus mutans; assay: Antimicrobial microplate assay (MIC), S. mutans; assay type: cell-based; details: two values per compound
From the text: (§4) Microbial strains: Escherichia coli, pseudomonas aeruginosa, Staphylococcus aureus, Streptococcus mutans and Candida albicans were collected from the microbial culture collection of Biopharmaceutical Products Research Department, Genetic Engineering and Biotechnology Research Institute, SRTA-City, New Borg El-Arab city, Alexandria, Egypt.
(§5) The antimicrobial activity of coumarin hybrids samples were checked against different multiple drug resistant microorganisms (Escherichia coli, pseudomonas aeruginosa, Staphylococcus aureus and Streptococcus mutans and Candida albicans) using various concentrations (30 to 100 µM). An aliquot of 100.0 µl of each sample concentration was added to an equal volume of each microbial growth dilution (about 10^6 CFU/ml) and inoculated into 96 well plate. Furthermore, 100.0 µl of LB media was added to 100.0 µl of microbial growth to set as the negative control group. After that, the inoculated plates were incubated overnight at 37 °C then, the microbial turbidity was measured using automated ELIZA microplate reader (BINDER BIOTECK E LX 800) adjusted at 620 nm. The microbial inhibition percentage after treatments were quantified using the following equation:1 Inhibition percentage=A-A1/A0×100. where, A: the treatment group absorbance, A1: the blank absorbance, and A0: the control group absorbance.

[4] = system: WISH cell line; assay: MTT safety assay on WISH normal cells; assay type: cell-based, Human; details: 2 days
From the text: as §1, §2

[5] = system: Candida albicans; assay: Antimicrobial microplate assay (MIC), C. albicans; assay type: cell-based; details: two values per compound
From the text: as §4, §5

[6] = system: CaCo-2 cell line; assay: MTT anti-proliferative assay, CaCo-2; assay type: cell-based, Human; details: for IC50: CaCo-2, MTT, 2 days; for Selective index: SI = IC50 normal cells (WISH)/IC50 CaCo-2
From the text: as §1, §2, §3

[7] = system: HepG-2; assay: MTT anti-proliferative assay, HepG-2; assay type: cell-based, human; details: for IC50: HepG-2, MTT, 2 days; for Selective index: SI = IC50 normal cells (WISH)/IC50 HepG-2
From the text: as §1, §2, §3

[8] = system: Staphylococcus aureus; assay: Antimicrobial microplate assay (MIC), S. aureus; assay type: cell-based; details: Staph. aureus, two values per compound
From the text: as §4, §5

[9] = system: Escherichia coli; assay: Antimicrobial microplate assay (MIC), E. coli; assay type: cell-based; details: two values per compound
From the text: as §4, §5

SMILES	IC50 [1] [µM]	Selective index [1]	IC50 ([2]; Homo sapiens, MDA-MB-231, 48 h) [µM]	Selective index [2]	MIC ([3]; Streptococcus mutans) [µM]	MIC [3] [µM]	IC50 ([4]; Homo sapiens, 48 h) [µM]	MIC ([5]; Candida albicans) [µM]	MIC [5]	IC50 ([6]; Homo sapiens, Caco-2, 48 h) [µM]	Selective index [6]	IC50 ([7]; Homo sapiens, HepG2, 48 h) [µM]	Selective index [7]	MIC [8] [µM]	MIC ([8]; Staphylococcus aureus) [µM]	MIC ([9]; Escherichia coli) [µM]	MIC [9] [µM]	further results
O=c1ccc2ccccc2o1 [Ct, coumarin]	260	0.6915	111	1.599	240 (≈ 35.1 µg/mL)	241 (≈ 35.2 µg/mL)	176	30 (≈ 4.38 µg/mL)	29 µM (≈ 4.24 µg/mL)	99.5	1.701	232	0.7613	63 (≈ 9.21 µg/mL)	62 (≈ 9.06 µg/mL)	59 (≈ 8.62 µg/mL)	58 (≈ 8.48 µg/mL)	–
Cn1c2nc3ccccc3c-2c(NCCCNC(=O)c2cc3ccccc3oc2=O)c2ccccc21 [13c, N-(3-((5-methyl-5H-indolo[2,3-b]quinolin-11-yl)amino)propyl)-2-oxo-2H-chromene-3-carboxamide]	65	–	89.9	–	–	–	95.9	–	–	84.8	–	71	–	–	–	–	–	–
O=C(NCCNc1ccnc2cc(Cl)ccc12)c1cc2ccccc2oc1=O [7b, N-(2-((7-Chloroquinolin-4-yl)amino)ethyl)-2-oxo-2H-chromene-3-carboxamide]	54.8	1.6 and 1.695	154	0.6038	100 (≈ 39.4 µg/mL)	103 (≈ 40.6 µg/mL)	92.9	28 (≈ 11 µg/mL)	27 µM (≈ 10.6 µg/mL)	52.8	1.76 and 1.764	88.7	1.049	22 (≈ 8.66 µg/mL)	20 (≈ 7.88 µg/mL)	45 (≈ 17.7 µg/mL)	43 (≈ 16.9 µg/mL)	melting point: 274 to 276 °C; IC50 [6]: 52.8 µM
COc1cccc2c1C(=O)c1c(O)c3c(c(O)c1C2=O)C[C@@](O)(C(=O)CO)C[C@@H]3O[C@H]1C[C@H](N)[C@H](O)[C@H](C)O1 [DOX, doxorubicin, reference compound]	3.78	0.7653	0.655	1.954	–	–	1.76	–	–	2.91	0.6148	1.18	1.653	–	–	–	–	–
O=C(O)c1cc2ccccc2oc1=O [compound 1, coumarin-3-carboxylic acid, reference compound]	351	0.9497	132	2.521	17 (≈ 3.23 µg/mL)	16.65 (≈ 3.17 µg/mL)	334	10 (≈ 1.9 µg/mL)	9.8 µM (≈ 1.86 µg/mL)	1110	0.3027	924	0.3617	8.5 (≈ 1.62 µg/mL)	8 (≈ 1.52 µg/mL)	20 (≈ 3.8 µg/mL)	21.76 (≈ 4.14 µg/mL)	IC50 [4]: 334 µM
O=C(NCCCNc1ccnc2cc(Cl)ccc12)c1cc2ccccc2oc1=O [7c, N-(3-((7-Chloroquinolin-4-yl)amino)propyl)-2-oxo-2H-chromene-3-carboxamide]	97.4	1.155	51	2.20 and 2.21	152 (≈ 62 µg/mL)	150 (≈ 61.2 µg/mL)	112	31 (≈ 12.6 µg/mL)	30 µM (≈ 12.2 µg/mL)	57.3	1.969	133	0.8456	29 (≈ 11.8 µg/mL)	28 (≈ 11.4 µg/mL)	125 (≈ 51 µg/mL)	126 (≈ 51.4 µg/mL)	IC50 [2]: 51 µM
Cn1c2nc3ccccc3c-2c(NCCNC(=O)c2cc3ccccc3oc2=O)c2ccccc21 [13b, N-(2-((5-Methyl-5H-indolo[2,3, b]quinolin-11-yl)amino)ethyl)-2-oxo-2H-chromene-3-carboxamide]	–	–	–	–	–	–	–	–	0.0011 µM and 0.0014 µM	–	–	–	–	–	–	–	–	–
O=C(Nc1ccc(Cc2ccc(Nc3ccnc4cc(Cl)ccc34)cc2)cc1)c1cc2ccccc2oc1=O [7e, N-(4-(4-((7-Chloroquinolin-4-yl)amino)benzyl)phenyl)-2-oxo-2H-chromene-3-carboxamide]	152	0.6129	70.5	1.32	160 (≈ 85.1 µg/mL)	162 (≈ 86.2 µg/mL)	93.1	25 (≈ 13.3 µg/mL)	26 µM (≈ 13.8 µg/mL)	86.3	1.079	351	0.2658	24 (≈ 12.8 µg/mL)	25 (≈ 13.3 µg/mL)	19 (≈ 10.1 µg/mL)	16 (≈ 8.51 µg/mL)	–
O=C(Nc1ccc(Nc2ccnc3cc(Cl)ccc23)cc1)c1cc2ccccc2oc1=O [7d, N-(4-((7-Chloroquinolin-4-yl)amino)phenyl)-2-oxo-2H-chromene-3-carboxamide]	–	0.67 and 0.6789	103	1.351	130 (≈ 57.4 µg/mL)	132 (≈ 58.3 µg/mL)	138	62 (≈ 27.4 µg/mL)	60 µM (≈ 26.5 µg/mL)	51.6	2.666	82.8	1.67 and 1.671	30 (≈ 13.3 µg/mL)	29 (≈ 12.8 µg/mL)	46 (≈ 20.3 µg/mL)	45 (≈ 19.9 µg/mL)	IC50 [6]: 52 µM; IC50 [7]: 82.8 µM
